The supplement of paper PMC13380429

Tests used:
Conditions in all cases: 72 h
Caco-2 [1] = test: drug sensitivity score (DSS) for viability; higher = more toxic; extreme values may be limits of the assay
HepG2 [2] = test: as above
U2OS [3] = test: as above
Vero E6 [4] = test: as above
HepG2 [5] = test: relative viability EC50 (midpoint between 100% and the lowest measured viability); higher = less toxic
U2OS [6] = test: as above
Vero E6 [7] = test: as above
Caco-2 [8] = test: cell viability relative to DMSO; higher = less toxic
HepG2 [9] = test: as above
U2OS [10] = test: as above
Vero E6 [11] = test: as above
Calu-3 [12] = test: drug sensitivity score (DSS) for viability; higher = more toxic; extreme values may be limits of the assay
Calu-3 [13] = test: relative viability EC50 (midpoint between 100% and the lowest measured viability); higher = less toxic
Calu-3 [14] = test: cell viability relative to DMSO; higher = less toxic
Caco-2 [15] = test: relative viability EC50 (midpoint between 100% and the lowest measured viability); higher = less toxic

SMILES	drug sensitivity score (Caco-2 [1])	drug sensitivity score (HepG2 [2])	drug sensitivity score (U2OS [3])	drug sensitivity score (Vero E6 [4])	relative viability EC50 (HepG2 [5])	relative viability EC50 (U2OS [6])	relative viability EC50 (Vero E6 [7])	cell viability (Caco-2 [8]; 1 nM)	cell viability (Caco-2 [8]; 10 nM)	cell viability (Caco-2 [8]; 100 nM)	cell viability (Caco-2 [8]; 1000 nM)	cell viability (Caco-2 [8]; 10000 nM)	cell viability (HepG2 [9]; 1 nM)	cell viability (HepG2 [9]; 10 nM)	cell viability (HepG2 [9]; 100 nM)	cell viability (HepG2 [9]; 1000 nM)	cell viability (HepG2 [9]; 10000 nM)	cell viability (U2OS [10]; 1 nM)	cell viability (U2OS [10]; 10 nM)	cell viability (U2OS [10]; 100 nM)	cell viability (U2OS [10]; 1000 nM)	cell viability (U2OS [10]; 10000 nM)	cell viability (Vero E6 [11]; 1 nM)	cell viability (Vero E6 [11]; 10 nM)	cell viability (Vero E6 [11]; 100 nM)	cell viability (Vero E6 [11]; 1000 nM)	cell viability (Vero E6 [11]; 10000 nM)	drug sensitivity score (Calu-3 [12])	relative viability EC50 (Calu-3 [13])	cell viability (Calu-3 [14]; 1 nM)	cell viability (Calu-3 [14]; 10 nM)	cell viability (Calu-3 [14]; 100 nM)	cell viability (Calu-3 [14]; 1000 nM)	cell viability (Calu-3 [14]; 10000 nM)	relative viability EC50 (Caco-2 [15])
CN1C(=O)CC[C@H]1c1cccnc1 [cotinine]	5.4	0	0	0	> 10 µM	> 10 µM	> 10 µM	71.1%	74.2%	84.3%	83%	106%	104%	99.4%	106%	105%	96.2%	94.7%	97.2%	92.9%	95.7%	102%	95.9%	92.8%	94%	95.7%	106%	–	–	–	–	–	–	–	–
Cc1c2oc3c(C)ccc(C(=O)N[C@@H]4C(=O)N[C@H](C(C)C)C(=O)N5CCC[C@H]5C(=O)N(C)CC(=O)N(C)[C@@H](C(C)C)C(=O)O[C@@H]4C)c3nc-2c(C(=O)N[C@@H]2C(=O)N[C@H](C(C)C)C(=O)N3CCC[C@H]3C(=O)N(C)CC(=O)N(C)[C@@H](C(C)C)C(=O)O[C@@H]2C)c(N)c1=O [dactinomycin]	16.4	35.8	27.7	18.7	0.0079 µM	0.0387 µM	0.248 µM	108%	83.7%	54.8%	63.4%	57.4%	99%	42.5%	15.8%	4.4%	4.1%	98.8%	74.2%	34.2%	1.1%	1.3%	101%	104%	91.9%	3.5%	8.7%	22.9	0.0187 µM	99.5%	75%	41%	29.7%	37.4%	–
CON(C)C(=O)N1N=C(c2cc(F)ccc2F)S[C@@]1(CCCN)c1ccccc1 [filanesib]	12.9	26.8	16.7	20.2	0.0056 µM	0.0424 µM	0.0172 µM	96.7%	76.6%	68.7%	68.4%	62.1%	98%	50%	35.1%	34.1%	34.4%	98.2%	97.8%	50.8%	43.5%	43.8%	106%	81.9%	45.1%	46.4%	40.7%	2	> 10 µM	97%	104%	87.8%	88.1%	79.3%	–
CC(C)C[C@H](NC(=O)[C@@H](COC(C)(C)C)NC(=O)[C@H](Cc1ccc(O)cc1)NC(=O)[C@H](CO)NC(=O)[C@H](Cc1c[nH]c2ccccc12)NC(=O)[C@H](Cc1cnc[nH]1)NC(=O)[C@@H]1CCC(=O)N1)C(=O)N[C@@H](CCCNC(=N)N)C(=O)N1CCC[C@H]1C(=O)NNC(N)=O [goserelin-acetate]	0.6	0	0	0.1	> 10 µM	> 10 µM	> 10 µM	96.9%	106%	96.6%	73.5%	94.1%	108%	92.9%	100%	92.1%	98.7%	107%	101%	99.2%	98.7%	96.7%	91%	104%	104%	95.3%	88.7%	0	> 10 µM	99.4%	97.7%	96.1%	95.4%	104%	–
COc1ccccc1OC(=O)c1ccccc1OC(C)=O [guacetisal]	–	0	0	0	> 10 µM	> 10 µM	> 10 µM	–	–	–	–	–	97.1%	115%	104%	104%	88.4%	97.3%	96.8%	99.2%	104%	99%	101%	105%	101%	102%	98.9%	0	> 10 µM	105%	90.9%	108%	102%	97.4%	–
CC(C)(C)NC(=O)[C@@H]1CN(Cc2cccnc2)CCN1C[C@@H](O)C[C@@H](Cc1ccccc1)C(=O)N[C@H]1c2ccccc2C[C@H]1O [indinavir]	–	1.4	0	0	> 10 µM	> 10 µM	> 10 µM	–	–	–	–	–	99.4%	88.7%	109%	93.3%	79.8%	98.4%	98.2%	92.5%	103%	93.5%	117%	78%	97.6%	104%	89.9%	0	> 10 µM	97%	107%	98.4%	102%	97.9%	–
CCN1C[C@]2(OC(=O)c3ccccc3NC(C)=O)CC[C@H](OC)[C@@]34[C@@H]2C[C@@H]([C@@H]13)[C@@]1(O)C[C@H](OC)[C@H]2C[C@@H]4[C@]1(O)[C@H]2OC [lappaconite]	0	0	0	–	> 10 µM	> 10 µM	–	87.7%	99%	85.5%	95.2%	89.8%	101%	97.1%	103%	100%	107%	103%	103%	98.1%	99.1%	94.4%	–	–	–	–	–	0	> 10 µM	103%	86.1%	94.1%	102%	106%	> 10 µM
CC[C@@H](C(N)=O)N1CCCC1=O [levetiracetam]	0	0	0	–	> 10 µM	> 10 µM	–	96.2%	91.6%	100%	95.2%	101%	93.2%	105%	90%	104%	92%	103%	98.2%	101%	97.2%	103%	–	–	–	–	–	0	> 10 µM	87.4%	91.8%	98.6%	103%	103%	> 10 µM
O=NN(CCCl)C(=O)NC1CCCCC1 [lomustine]	3.2	0	0	0	> 10 µM	> 10 µM	> 10 µM	89.7%	78.5%	101%	93.2%	59%	102%	95%	99.2%	104%	98.7%	98.5%	97.1%	97.5%	102%	94%	97.9%	99.1%	99.6%	92.4%	94.6%	0	> 10 µM	87.1%	102%	88.9%	104%	96.1%	–
CC(=O)Oc1ccccc1C(=O)Nc1ncc([N+](=O)[O-])s1 [nitazoxanide]	1.6	2.8	0	0	–	> 10 µM	> 10 µM	97.3%	98.8%	102%	104%	61.7%	97.1%	95.6%	94.5%	91%	65.3%	99.2%	98.5%	101%	93.3%	91.4%	98.2%	98.7%	106%	102%	96.9%	0	> 10 µM	102%	103%	107%	99.1%	98.8%	–
CN1CCN(c2cccc3[nH]c(=O)oc23)CC1 [pardoprunox]	0	0	0	–	> 10 µM	> 10 µM	–	102%	101%	96.4%	90.6%	100%	90.7%	105%	89.1%	99.2%	97.3%	106%	99.3%	102%	95.3%	101%	–	–	–	–	–	0	> 10 µM	95.8%	93.2%	102%	107%	99.1%	> 10 µM
O=C(/C=C/C=C/c1ccc2c(c1)OCO2)N1CCCCC1 [piperine]	1.6	0	0	0	> 10 µM	> 10 µM	> 10 µM	94.4%	106%	96.6%	97.4%	70.9%	93.7%	91.8%	86.7%	84.6%	95.9%	95.1%	97.6%	91.2%	102%	97.8%	108%	102%	109%	92.5%	93.2%	0	> 10 µM	92.4%	103%	101%	106%	90.1%	–
CCCOc1ccc2c(c1)CC[C@@H]1[C@@H]2CC[C@]2(C)[C@@H](OC)CC[C@@H]12 [promestriene]	0	0	0	–	> 10 µM	> 10 µM	–	97.9%	97.4%	97.7%	90.4%	98.5%	102%	107%	103%	93%	97.9%	93.5%	105%	96.2%	96.5%	99.9%	–	–	–	–	–	0	> 10 µM	99%	90.9%	97.5%	92.3%	104%	> 10 µM
CCC(=O)NC[C@@H]1C[C@H]1c1cccc2c1CCO2 [tasimelteon]	0	0	0	–	> 10 µM	> 10 µM	–	97.9%	92.1%	90.6%	98%	99.4%	108%	107%	102%	106%	98.5%	92.8%	103%	93.9%	93.6%	102%	–	–	–	–	–	0	> 10 µM	91.1%	103%	91.9%	103%	103%	> 10 µM
